Counter-ions that a name gives are not always drawn.
Experiments:
[1] = system: BFP-LC3 stably expressing NRK cells; test: Lysotracker staining of BFP-LC3 stably expressing NRK cells; type: cell-based, rat; settings: treatment for 18 hours, compared with control cells
Method: Moreover, after treating BFP-LC3 stably expressing NRK cells with these seven small molecule compounds for 18 hours, staining with Lysotracker dye was performed.

[2] = system: CLN3^Δex7/8 human neurons; test: Lysotracker staining of CLN3^Δex7/8 human neurons, flow cytometry; type: cell-based
Method: In analyzing the mean fluorescence intensity of neural stem cells and neuronal staining or single cell establishment of NRK cells, flow cytometry was used: the cell medium was aspirated off, after wash with dPBS once, the digestive enzyme corresponding to the cell type was added to digest into single cells; the supernatant was removed by centrifugation, and the cells were resuspended with 1 mL of fresh medium; the cell suspension with filtered through 40 μm filter membrane and the single cell filtrate was collected; the single cell filtrate was transferred to a flow tube and analyzed or sorted using BD FACS Aria III; in the analysis, the fluorescence intensity of 1×10^4 cells for each sample was analyzed to obtain the mean fluorescence intensity (MFI); for sorting, cells were received in 96 well plates with medium, one cell per well to establish a cell line.
Studies above have shown that CLN3^Δex7/8 human neurons feature lysosomal acidity dysregulation. To investigate the effect of Compound G on lysosomal acidity in CLN3^Δex7/8 neurons, Lysotracker dye was used for staining and flow cytometry was used for analyzing the fluorescence intensity of Lysotracker dye in cells.

NRK cells = test: Lysotracker staining of NRK cells, flow cytometry; type: cell-based, rat
From the text: The impact of increased p62 protein levels on the cellular lysosomal functions was detected: GFP-p62 proteins and GFP proteins of the control group were overexpressed in NRK cells, and Lysotracker dye was used to detect the acidity of lysosomes in GFP-positive cells.

SCMAS protein = SCMAS protein storage in neurons (immunofluorescence staining and western blot); type: cell-based, human; settings: CLN3^Δex7/8 neurons
Method: Sample preparation: for adherent cultured cells, exemplified by cells cultured in a six-well cell plate, the cell medium was aspirated and the cells were washed once with dPBS. About 100 μL of RIPA lysate (50 mM Tris-HCl, pH 7.5, 150 mM NaCl, 0.25% Na-deoxycholate, 0.1% NP-40, 0.1% Triton X-100) containing protease inhibitors and phosphatase inhibitors was added to each well. The cell lysate was scraped off completely with a cell scraper and collected into 1.5 mL EP tubes. Lysis was continued for 30 minutes on ice. For animal tissue, the weight of the animal tissue was weighed, and RIPA lysate containing protease inhibitors and phosphatase inhibitors was added with five times the volume of the animal tissue. The tissue was grinded on ice with a tissue grinder until there is no obvious tissue mass, collected into 1.5 mL EP tubes, and placed on ice for further lysis for 30 min. […]

Structure (SMILES) | intracellular Lysotracker staining (lysosomal acidity) [1] | Lysotracker fluorescence intensity in CLN3^Δex7/8 human neurons [2] | intracellular lysosomal acidity (Lysotracker) (NRK cells) | abnormal storage of SCMAS protein (SCMAS protein)
CO/C1=C\C(C)=C\[C@@H](C)[C@@H](O)[C@@H](C)C/C(C)=C/C=C/[C@H](OC)[C@@H]([C@@H](C)[C@@H](O)[C@H](C)[C@@]2(O)C[C@@H](O)[C@H](C)[C@@H](C(C)C)O2)OC1=O [Baf-A1, bafilomycin A1] | significant decrease in lysosomal acidity | – | – | –
COC(=O)/C=C/C(=O)OC [DMF, dimethyl fumarate, reference compound] | – | significantly increased | significantly increase the intracellular lysosomal acidity | significantly reduced

Reference: patent US20250152605A1, “METHOD AND DRUG FOR TREATING NEURONAL CEROID LIPOFUSCINOSIS” (priority 2021, published 2025)
